Read-outs that look alike come from different tables or passages of the source.
How the values were obtained:
[1] = molecular target: T1, rNav1.2 sodium channels (HEK-293 cells) (Rattus norvegicus, UniProt P04775); assay: 5 Hz train protocol, QPatch automated patch-clamp; format: cell-based; conditions: for τoff: 500 s assigned where irreversible; for Rev (reversibility): Rev = A5/A1 after washout; for potency estimated from few doses: −90 mV;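 for UD (use-dependence of the inhibition): UD = (A3/A4)/(A1/A2) as ratios of peak amplitudes from Figure 1A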
T1 sequence (P04775 whole entry): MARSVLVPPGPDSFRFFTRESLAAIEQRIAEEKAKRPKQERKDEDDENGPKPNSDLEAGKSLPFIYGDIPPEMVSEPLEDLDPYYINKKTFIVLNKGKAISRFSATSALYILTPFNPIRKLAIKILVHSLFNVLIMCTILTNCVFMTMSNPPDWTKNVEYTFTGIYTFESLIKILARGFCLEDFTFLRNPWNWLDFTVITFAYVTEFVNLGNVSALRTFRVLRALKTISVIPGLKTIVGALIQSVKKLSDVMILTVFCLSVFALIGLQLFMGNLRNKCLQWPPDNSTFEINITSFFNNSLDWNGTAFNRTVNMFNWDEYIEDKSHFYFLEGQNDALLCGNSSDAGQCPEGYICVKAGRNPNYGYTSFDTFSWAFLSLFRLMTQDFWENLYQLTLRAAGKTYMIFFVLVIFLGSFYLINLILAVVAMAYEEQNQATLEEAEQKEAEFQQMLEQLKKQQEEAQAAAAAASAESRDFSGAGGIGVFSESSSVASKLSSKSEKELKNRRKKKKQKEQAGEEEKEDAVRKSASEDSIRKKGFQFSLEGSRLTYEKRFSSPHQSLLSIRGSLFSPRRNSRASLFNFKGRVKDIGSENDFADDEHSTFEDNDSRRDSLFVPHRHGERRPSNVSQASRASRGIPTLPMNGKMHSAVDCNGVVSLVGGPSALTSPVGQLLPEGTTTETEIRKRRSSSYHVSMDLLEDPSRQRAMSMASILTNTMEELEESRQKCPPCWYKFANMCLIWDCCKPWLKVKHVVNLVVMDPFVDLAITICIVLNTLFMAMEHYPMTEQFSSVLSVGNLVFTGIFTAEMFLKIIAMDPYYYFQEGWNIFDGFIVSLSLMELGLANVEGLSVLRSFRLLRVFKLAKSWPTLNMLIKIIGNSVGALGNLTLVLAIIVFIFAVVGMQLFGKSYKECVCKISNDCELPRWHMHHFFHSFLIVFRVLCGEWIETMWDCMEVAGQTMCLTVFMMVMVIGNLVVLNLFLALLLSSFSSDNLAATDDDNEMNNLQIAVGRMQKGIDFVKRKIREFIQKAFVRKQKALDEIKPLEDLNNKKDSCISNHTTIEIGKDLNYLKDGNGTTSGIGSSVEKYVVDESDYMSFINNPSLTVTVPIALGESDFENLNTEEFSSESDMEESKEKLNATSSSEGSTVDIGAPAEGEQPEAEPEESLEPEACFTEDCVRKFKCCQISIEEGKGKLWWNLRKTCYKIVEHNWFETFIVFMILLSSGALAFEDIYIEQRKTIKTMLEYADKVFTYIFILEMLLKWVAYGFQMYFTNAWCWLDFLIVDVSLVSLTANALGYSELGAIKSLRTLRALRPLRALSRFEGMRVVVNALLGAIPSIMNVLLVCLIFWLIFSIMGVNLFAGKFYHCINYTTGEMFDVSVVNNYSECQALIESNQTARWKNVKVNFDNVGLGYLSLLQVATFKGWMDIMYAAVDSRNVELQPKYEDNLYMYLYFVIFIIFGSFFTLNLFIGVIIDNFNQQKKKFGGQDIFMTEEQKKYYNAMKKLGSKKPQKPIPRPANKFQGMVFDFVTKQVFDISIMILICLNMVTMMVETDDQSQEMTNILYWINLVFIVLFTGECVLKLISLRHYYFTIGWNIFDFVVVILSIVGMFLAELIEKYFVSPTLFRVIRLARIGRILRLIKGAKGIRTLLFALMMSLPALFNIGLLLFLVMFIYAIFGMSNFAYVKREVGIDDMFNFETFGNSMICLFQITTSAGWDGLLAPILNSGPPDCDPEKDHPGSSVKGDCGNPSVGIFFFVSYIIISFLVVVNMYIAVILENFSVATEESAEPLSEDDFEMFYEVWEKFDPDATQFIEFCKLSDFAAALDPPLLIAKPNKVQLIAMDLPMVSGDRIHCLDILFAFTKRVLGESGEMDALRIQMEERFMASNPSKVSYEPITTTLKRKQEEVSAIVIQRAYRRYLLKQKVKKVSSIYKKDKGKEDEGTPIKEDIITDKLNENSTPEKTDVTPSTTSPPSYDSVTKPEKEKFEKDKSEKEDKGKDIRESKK
Source text: The dynamics of the onset and offset of inhibition was monitored using 5 Hz trains of five depolarizing pulses from a holding potential of −90 mV to −10 mV. The trains were repeated every 20 s. Drugs were applied after 10 control trains and 10 trains were delivered in the presence of the drug. The drug was then washed out, and the 10 trains were repeated.
We measured inhibition (Inh; from which we calculated IC50 values as described in Materials and Methods), reversibility of inhibition (Rev) and use-dependence (UD), as well as time constant of onset (τon) and offset (τoff). The calculation of IC50, quantification of Rev and UD, and the determination of time constants are illustrated in Figure 1A. Because τon should be concentration-dependent if we assume a single binding reaction, we excluded it from the analyses. […] Comments on the interpretation of these properties (Rev, […] and UD) are in Results S1.
(§1) A)–D) Peak amplitudes of evoked currents (5 Hz trains of 5 depolarizations from −90 to −10 mV) are plotted against time. Black dots: Control. Grey dots: Drug perfusion. […] Calculation of properties of inhibition is illustrated. […] E) Calculation of Kr and Ki values from steady-state availability curves.
(§2) HEK-293 cells stably expressing rNav1.2 sodium channels were obtained from NeuroSearch (Ballerup, Denmark).
(§3) Cells were automatically prepared for application to the chips (centrifuged and washed twice, then resuspended in extracellular solution) as described previously. Composition of the extracellular solution was: (in mM): 140 NaCl, 3 KCl, 1 CaCl2, 1 MgCl2, 0.1 CdCl2, 20 TEA-Cl, 5 HEPES, adjusted to pH 7.3, Osmolality: ∼320 mOsm.
(§4) All electrophysiological experiments were conducted on Qpatch-16 or QPatch HT instruments using QPlate™ chips. For a detailed description of the instrument and the patch-clamp chips see [37], [38]. Data were sampled at a frequency of 25 kHz and filtered at 5 kHz. […] The amplifier was controlled and the data were collected by the Sophion QPatch client software. For initial data analysis the QPatch software was used. Built-in amplifiers provide an improved method for series resistance compensation. Leak subtraction (based on a standard P/n protocol) was used to subtract the capacitive component of currents.
From this protocol we extracted five parameters, as illustrated in Figure 1A. We calculated inhibition of a single “cc” concentration: Inh = (amplitudectr – amplitudedrug)/amplitudectr.

[2] = molecular target: T1, rNav1.2 sodium channels (HEK-293 cells); assay: steady-state inactivation protocol (availability curves), QPatch automated patch-clamp; format: cell-based
Source text: as §1
Standard steady-state inactivation protocols were used to measure the shift of steady-state availability curve caused by the drugs. Currents were evoked by a 10 ms test pulse to −10 mV, preceded by 400 ms pre-pulses from −150 to −30 mV. […] Because the inhibition at hyperpolarized potentials (Inh−150), and the shift of the availability curves (ΔV1/2) are both concentration-dependent properties, we calculated affinities to hyperpolarized and depolarized states (“resting state affinity”: Kr, and “inactivated state affinity”: Ki), which, on the other hand, are concentration-independent characteristics of individual drugs. Calculation of Kr and Ki values are described in Materials and Methods, and illustrated in Figure 1E. State-dependence (SD) was quantified as the ratio Kr/Ki.
as §2, §3, §4
Inactivated affinity (Ki) values were calculated assuming a simple four-state model of drug binding and channel gating, using two separate methods: (1) from the shift of the availability curve (ΔV1/2), the slope of the Boltzmann fit of the availability curve (k) and Kr, using the formula described by Bean, Cohen and Tsien (Ki−ΔV1/2; see Figure 1E), or (2) from the apparent affinity (Kapp) at a certain pre-pulse potential, which was calculated from the inhibition (e.g. Inh−60) as described above, and the availability (h) at the same pre-pulse potential, using the formula from Kuo and Bean (Figure 1E). […] (Arithmetic means and SEM values are given in Results S7.)

[3] = human plasma, cited from earlier work
[4] = HEK293, 100 μM, −90 mV holding potential, 5 Hz train, read-out: Inh (inhibited fraction)
[5] = HEK293, calculated from Inh at single concentration 100 μM, 5 Hz train, read-out: IC50
[6] = HEK293, 100 µM, read-out: Inh (inhibited fraction) at holding potential −150 mV
[7] = arithmetic mean, 100 µM, read-out: Ki-Kapp arith
[8] = arithmetic mean, 100 µM, read-out: Ki-ΔV1/2 arith
[9] = arithmetic mean, 100 µM, read-out: Kr arith
[10] = geometric mean, from Inh at −150 mV, 100 µM, read-out: Kr (resting state affinity)
[11] = geometric mean, from apparent affinity, 100 µM, read-out: Ki−Kapp (inactivated state affinity)
[12] = geometric mean, from shift of availability curve, 100 µM, read-out: Ki−ΔV1/2 (inactivated state affinity)

CC(NC(C)(C)C)C(=O)c1cccc(Cl)c1 (centres unmarked) [BPR, Bupropion]
τon ([1]; 100 μM): 4.6 s | UD (use-dependence of the inhibition) ([1]; 100 μM, 5 Hz train): 1.04 | τoff ([1]; 100 μM): 12.45 s | Rev (reversibility) ([1]; 100 μM): 0.92 | inhibition at 100 µM [1, 4]: 15% | potency estimated from few doses [1, 5]: 565 µM | inhibition at 100 µM [2, 6]: 16% | Ki [2, 7]: 27.4 µM | Ki [2, 8]: 29.1 µM | Kd [2, 9]: 733 µM | Kd [2, 10]: 604 µM | Ki [2, 11]: 25.5 µM | Ki [2, 12]: 26 µM

CN(C)CC/C=C1/c2ccccc2Sc2ccc(Cl)cc21 [CHX, Chlorprothixene]
plasma conc. ([3]; as printed in each cell): 0.07 [50] µg/ml | plasma conc. ([3]; as printed in the µg/ml cell): 0.200 µM | τon ([1]; 30 μM): 7.24 s | UD (use-dependence of the inhibition) ([1]; 30 μM, 5 Hz train): 1.25 | τoff ([1]; 30 μM): 14.41 s | Rev (reversibility) ([1]; 30 μM): 0.18 | inhibition at 30 µM ([1]; HEK293, 30 μM, −90 mV holding potential, 5 Hz train, read-out: Inh (inhibited fraction)): 28% | potency estimated from few doses ([1]; HEK293, calculated from Inh at single concentration 30 μM, 5 Hz train, read-out: IC50): 42.5 µM | ΔV1/2 (shift of availability curve) ([2]; 30 μM): −15.8 mV | inhibition at 30 µM ([2]; HEK293, 30 µM, read-out: Inh (inhibited fraction) at holding potential −150 mV): 20% | Ki ([2]; arithmetic mean, 30 µM, read-out: Ki-Kapp arith): 2.21 µM | Ki ([2]; arithmetic mean, 30 µM, read-out: Ki-ΔV1/2 arith): 1.14 µM | Kd ([2]; arithmetic mean, 30 µM, read-out: Kr arith): 144 µM | Kd ([2]; geometric mean, from Inh at −150 mV, 30 µM, read-out: Kr (resting state affinity)): 128 µM | Ki ([2]; geometric mean, from apparent affinity, 30 µM, read-out: Ki−Kapp (inactivated state affinity)): 1.74 µM | Ki ([2]; geometric mean, from shift of availability curve, 30 µM, read-out: Ki−ΔV1/2 (inactivated state affinity)): 0.73 µM

CN1CCN(C2=Nc3cc(Cl)ccc3Nc3ccccc32)CC1 [CLZ, Clozapine]
plasma conc. ([3]; as printed in each cell): 0.55 [44] µg/ml | plasma conc. ([3]; as printed in the µg/ml cell): 1.671 µM

O=C(O)Cc1ccccc1Nc1c(Cl)cccc1Cl [DIC, Diclofenac]
plasma conc. ([3]; as printed in each cell): 2 [44] µg/ml | plasma conc. ([3]; as printed in the µg/ml cell): 6.287 µM | τon ([1]; 100 μM): 7.19 s | UD (use-dependence of the inhibition) ([1]; 100 μM, 5 Hz train): 1.01 | τoff ([1]; 100 μM): 26.43 s | Rev (reversibility) ([1]; 100 μM): 0.95 | potency estimated from few doses [1, 5]: 561 µM | inhibition at 100 µM [2, 6]: 3% | Ki [2, 7]: 98.4 µM | Ki [2, 8]: 102 µM | Kd [2, 9]: 3300 µM | Kd [2, 10]: 3120 µM | Ki [2, 11]: 87.8 µM | Ki [2, 12]: 81 µM

C#CCN(C)[C@H](C)Cc1ccccc1 [DPR, R-(-)-Deprenyl]
IC50 compared to plasma concentration [1]: exceedingly high | Inh (inhibited fraction) ([1]; 300 μM, −90 mV holding potential, 5 Hz train): 0.22

Fc1ccc(C(c2ccc(F)cc2)N2CCN(C/C=C/c3ccccc3)CC2)cc1 [FLR, Flunarizine]
plasma conc. ([3]; as printed in each cell): 0.06 [58] µg/ml | plasma conc. ([3]; as printed in the µg/ml cell): 0.113 µM

CNCCC(Oc1ccc(C(F)(F)F)cc1)c1ccccc1 (centres unmarked) [FLX, Fluoxetine]
plasma conc. ([3]; as printed in each cell): 0.38 [44] µg/ml | plasma conc. ([3]; as printed in the µg/ml cell): 1.099 µM

NCC1(CC(=O)O)CCCCC1 [GAB, Gabapentin]
plasma conc. ([3]; as printed in each cell): 4 [44] µg/ml | plasma conc. ([3]; as printed in the µg/ml cell): 23.359 µM | potency estimated from few doses ([1]; HEK293, read-out: IC50, calculated from Inh at single concentration 300 μM, 5 Hz train): 14700 µM | inhibition at 300 µM ([1]; HEK293, read-out: Inh (inhibited fraction)): 3%

O=C(CCCN1CCC(O)(c2ccc(Cl)cc2)CC1)c1ccc(F)cc1 [HAL, Haloperidol]
plasma conc. ([3]; as printed in each cell): 0.02 [44] µg/ml | plasma conc. ([3]; as printed in the µg/ml cell): 0.053 µM

O=C(NCCN1CCOCC1)c1ccc(Cl)cc1 [MCL, Moclobemide]
plasma conc. ([3]; as printed in each cell): 0.29 [49] µg/ml | inhibition at 100 µM [1, 4]: 9% | potency estimated from few doses [1, 5]: 1010 µM

CNC1(C)C2CCC(C2)C1(C)C (centres unmarked) [MEC, Mecamylamine]
plasma conc. ([3]; as printed in each cell): 0.02 [60] µg/ml | plasma conc. ([3]; as printed in the µg/ml cell): 0.118 µM | IC50 compared to plasma concentration [1]: exceedingly high | inhibition at 100 µM [1, 4]: 5% | potency estimated from few doses [1, 5]: 2760 µM
